Assay results: patent publication US12162890B2 (Novartis AG, priority 2015, dated 2024)
Further: test concentration or dose not given here.

These molecules were tested against HEK293 cells with stable expression of the GRIN1 gene and tetracycline-inducible expression of the GRIN2B gene (NMDA receptor, NR2B) (Homo sapiens, UniProt Q13224) (assay: Fluo-8 Ca2+ flux assay: reversal of Ro 25-6981-mediated suppression of the Ca2+ response to co-agonist (glutamate/glycine)). Conditions: reversal of the Ro 25-6981 suppression of the Ca2+ response to co-agonist (glutamate/glycine).
Chain of HEK293 cells with stable expression of the GRIN1 gene and tetracycline-inducible expression of the GRIN2B gene (NMDA receptor, NR2B) (Q13224 27-1484, other chains not shown): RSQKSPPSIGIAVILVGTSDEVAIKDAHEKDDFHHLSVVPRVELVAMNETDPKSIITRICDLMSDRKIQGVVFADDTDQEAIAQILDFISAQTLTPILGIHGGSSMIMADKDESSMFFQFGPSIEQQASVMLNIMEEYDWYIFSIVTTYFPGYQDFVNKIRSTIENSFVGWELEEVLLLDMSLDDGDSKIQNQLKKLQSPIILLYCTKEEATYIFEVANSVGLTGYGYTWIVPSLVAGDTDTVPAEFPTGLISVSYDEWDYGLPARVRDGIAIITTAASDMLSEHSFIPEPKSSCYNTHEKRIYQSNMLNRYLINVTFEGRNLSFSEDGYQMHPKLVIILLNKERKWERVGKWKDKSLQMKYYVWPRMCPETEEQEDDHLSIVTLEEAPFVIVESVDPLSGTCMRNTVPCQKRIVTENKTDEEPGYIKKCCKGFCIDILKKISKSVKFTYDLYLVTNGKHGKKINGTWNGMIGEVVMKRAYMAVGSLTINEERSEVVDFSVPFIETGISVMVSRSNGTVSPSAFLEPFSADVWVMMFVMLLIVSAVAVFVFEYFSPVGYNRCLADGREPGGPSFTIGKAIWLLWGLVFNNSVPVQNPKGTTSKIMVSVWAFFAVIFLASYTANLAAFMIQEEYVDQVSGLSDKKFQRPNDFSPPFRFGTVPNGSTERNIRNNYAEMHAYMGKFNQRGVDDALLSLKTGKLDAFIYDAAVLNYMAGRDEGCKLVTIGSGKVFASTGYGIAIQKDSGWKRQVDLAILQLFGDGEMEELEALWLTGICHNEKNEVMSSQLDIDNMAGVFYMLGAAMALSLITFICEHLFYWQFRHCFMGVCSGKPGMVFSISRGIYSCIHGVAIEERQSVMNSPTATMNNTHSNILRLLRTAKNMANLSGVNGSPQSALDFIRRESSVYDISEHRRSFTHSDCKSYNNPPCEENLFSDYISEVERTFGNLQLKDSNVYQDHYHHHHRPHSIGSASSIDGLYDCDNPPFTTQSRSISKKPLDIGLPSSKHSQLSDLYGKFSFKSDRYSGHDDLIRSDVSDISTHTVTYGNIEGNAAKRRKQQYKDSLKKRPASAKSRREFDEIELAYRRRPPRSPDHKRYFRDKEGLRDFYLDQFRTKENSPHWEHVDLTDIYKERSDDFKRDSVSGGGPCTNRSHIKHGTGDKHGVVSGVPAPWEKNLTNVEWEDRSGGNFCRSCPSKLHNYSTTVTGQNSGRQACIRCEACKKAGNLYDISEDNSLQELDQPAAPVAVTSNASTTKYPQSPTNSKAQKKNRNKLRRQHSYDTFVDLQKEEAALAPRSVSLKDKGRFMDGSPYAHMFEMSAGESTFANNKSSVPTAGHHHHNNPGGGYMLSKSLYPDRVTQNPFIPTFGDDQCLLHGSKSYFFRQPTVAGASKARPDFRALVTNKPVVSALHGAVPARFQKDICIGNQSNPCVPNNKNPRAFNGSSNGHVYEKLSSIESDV
Assay type: cell-based
In the case of Cn1cc(-c2ccc(Cl)cc2)c2c(=O)n(CC(=O)N3CCCC3C(F)(F)F)cnc21 (stereo not drawn) [Example 153, 5-(4-chlorophenyl)-7-methyl-3-(2-oxo-2-(2-(trifluoromethyl)pyrrolidin-1-yl)ethyl)-3H-pyrrolo[2,3-d]pyrimidin-4(7H)-one], the “Response Recovered (%)” value is reported as 35%. In the case of O=C(Cn1cnc2[nH]cc(-c3ccc(Cl)cc3)c2c1=O)N1CC(F)(F)C1 [Example 154, 5-(4-chlorophenyl)-3-(2-(3,3-difluoroazetidin-1-yl)-2-oxoethyl)-3H-pyrrolo[2,3-d]pyrimidin-4(7H)-one], the “Response Recovered (%)” value is reported as 36%. With Cn1cc(-c2ccc(Cl)cc2)c2c(=O)n(CC(=O)N3CC(F)(F)C3)cnc21 [Example 155, 5-(4-chlorophenyl)-3-(2-(3,3-difluoroazetidin-1-yl)-2-oxoethyl)-7-methyl-3H-pyrrolo[2,3-d]pyrimidin-4(7H)-one] the “Response Recovered (%)” value was 24%. O=C(Cn1cnc2[nH]cc(-c3ccc(F)c(Cl)c3)c2c1=O)N1CCCC1 [Example 156, 5-(3-chloro-4-fluorophenyl)-3-(2-oxo-2-(pyrrolidin-1-yl)ethyl)-3H-pyrrolo[2,3-d]pyrimidin-4(7H)-one] was tested, and the “Response Recovered (%)” value was 36%. CCn1cc(-c2ccc(Cl)c(C(F)(F)F)c2)c2c(=O)n(CC(=O)N3CCCC3)cnc21 [Example 157, 5-(4-chloro-3-(trifluoromethyl)phenyl)-7-ethyl-3-(2-oxo-2-(pyrrolidin-1-yl)ethyl)-3H-pyrrolo[2,3-d]pyrimidin-4(7H)-one] was tested, and the “Response Recovered (%)” value was 70%. With Cn1cc(-c2ccc(Cl)c(C(F)(F)F)c2)c2c(=O)n(CC(=O)N3CCCC3)cnc21 [Example 158, 5-(4-chloro-3-(trifluoromethyl)phenyl)-7-methyl-3-(2-oxo-2-(pyrrolidin-1-yl)ethyl)-3H-pyrrolo[2,3-d]pyrimidin-4(7H)-one] the “Response Recovered (%)” value was 72%. With Cn1cc(-c2ccc(F)c(Cl)c2)c2c(=O)n(CC(=O)N3CCCC3)cnc21 [Example 159, 5-(3-chloro-4-fluorophenyl)-7-methyl-3-(2-oxo-2-(pyrrolidin-1-yl)ethyl)-3H-pyrrolo[2,3-d]pyrimidin-4(7H)-one] the “Response Recovered (%)” value was 25%. CCn1cc(-c2ccc(F)c(Cl)c2)c2c(=O)n(CC(=O)N3CCCC3)cnc21 [Example 160, 5-(3-chloro-4-fluorophenyl)-7-ethyl-3-(2-oxo-2-(pyrrolidin-1-yl)ethyl)-3H-pyrrolo[2,3-d]pyrimidin-4(7H)-one] was tested, and the “Response Recovered (%)” value was 42%. In the case of O=C(Cn1cnc2[nH]cc(-c3ccc(F)c(Cl)c3)c2c1=O)N1CC(F)(F)C1 [Example 161, 5-(3-chloro-4-fluorophenyl)-3-(2-(3,3-difluoroazetidin-1-yl)-2-oxoethyl)-3H-pyrrolo[2,3-d]pyrimidin-4(7H)-onepyrrolo[2,3-d]pyrimidin-4(7H)-one], the “Response Recovered (%)” value is reported as 58%. For Cn1cc(-c2ccc(F)c(Cl)c2)c2c(=O)n(CC(=O)N3CC(F)(F)C3)cnc21 [Example 162, 5-(3-chloro-4-fluorophenyl)-3-(2-(3,3-difluoroazetidin-1-yl)-2-oxoethyl)-7-methyl-3H-pyrrolo[2,3-d]pyrimidin-4(7H)-one], the “Response Recovered (%)” value was 40%. For CCn1cc(-c2ccc(F)c(Cl)c2)c2c(=O)n(CC(=O)N3CC(F)(F)C3)cnc21 [Example 163, 5-(3-chloro-4-fluorophenyl)-3-(2-(3,3-difluoroazetidin-1-yl)-2-oxoethyl)-7-ethyl-3H-pyrrolo[2,3-d]pyrimidin-4(7H)-one], the “Response Recovered (%)” value was 48%. O=C(Cn1cnc2[nH]cc(-c3ccc(Cl)c(F)c3)c2c1=O)N1CCCC1 [Example 164, 5-(4-chloro-3-fluorophenyl)-3-(2-oxo-2-(pyrrolidin-1-yl)ethyl)-3H-pyrrolo[2,3-d]pyrimidin-4(7H)-one] was tested, and the “Response Recovered (%)” value was 48%.
